From publication PMC11796312, “Multifunctional, Fluorene‐Based Modulator of Cholinergic and GABAergic Neurotransmission as a Novel Drug Candidate for Palliative Treatment of Alzheimer's Disease” (Angewandte Chemie (International Ed. in English), 2024)
“Also recorded” adds a separate entry of the source. Like-named read-outs stand apart in the source and are kept apart here.

Key:
hGAT‐3 = conditions: cited from earlier work
[1] = target: T1, human butyrylcholinesterase (hBuChE) (Homo sapiens, UniProt P06276); test: biochemical; conditions: inhibitor concentration 1 μM; read-out: hBuChE % inh.
T1 construct: from human plasma was from Vivonics (Bedford, MA, USA); purchased Vivonics (Bedford, MA, USA); host or cells: human plasma

[2] = system: mice treated with scopolamine; test: Passive avoidance (PA) task, scopolamine-induced amnesia; assay type: in vivo; conditions: mouse, in vivo
Description: Animals and housing conditions
In all pharmacodynamic in vivo experiments, except for the Barnes maze (BM) task, adult male Albino Swiss (CD-1) mice weighing between 18 and 22 g and purchased from the Animal Breeding Farm of the Faculty of Pharmacy, Jagiellonian University Medical College were used. In BM task, C57BL/6J mice of the same weight (Animalab, Poland) were used.
Animals were housed in cages (10 mice per cage) at a constant temperature of 22 ± 2 °C, humidity of 55 ± 10%, and a light/dark (12:12) cycle (lights on at 7 AM). Before the experiments, the animals had unlimited access to food and water. Specified conditions for the maintenance of mice were ensured throughout the experiments, including tree bedding (Transwior, Poland) and cage enrichment (tunnels, nesting material, wooden igloos, etc.). […]
doses for behavioral assays. Lower doses were also assessed if at least one of them was […]
On the first day, during the acquisition trial (a conditioning phase), the test compound 6, scopolamine, and vehicle were injected. […] The latency between opening the guillotine gate and the mouse entering the black compartment was measured for each mouse. On the next day, during the retention (drug-off) trial, the mice were placed again into the white compartment for a 30-s habituation period, and the latency to enter the black compartment was measured for each mouse. […]

BuChE = conditions: 1 or 5 µM compound (printed '1 or 5 M'), vs DMSO

T1 sequence (P06276 29-602): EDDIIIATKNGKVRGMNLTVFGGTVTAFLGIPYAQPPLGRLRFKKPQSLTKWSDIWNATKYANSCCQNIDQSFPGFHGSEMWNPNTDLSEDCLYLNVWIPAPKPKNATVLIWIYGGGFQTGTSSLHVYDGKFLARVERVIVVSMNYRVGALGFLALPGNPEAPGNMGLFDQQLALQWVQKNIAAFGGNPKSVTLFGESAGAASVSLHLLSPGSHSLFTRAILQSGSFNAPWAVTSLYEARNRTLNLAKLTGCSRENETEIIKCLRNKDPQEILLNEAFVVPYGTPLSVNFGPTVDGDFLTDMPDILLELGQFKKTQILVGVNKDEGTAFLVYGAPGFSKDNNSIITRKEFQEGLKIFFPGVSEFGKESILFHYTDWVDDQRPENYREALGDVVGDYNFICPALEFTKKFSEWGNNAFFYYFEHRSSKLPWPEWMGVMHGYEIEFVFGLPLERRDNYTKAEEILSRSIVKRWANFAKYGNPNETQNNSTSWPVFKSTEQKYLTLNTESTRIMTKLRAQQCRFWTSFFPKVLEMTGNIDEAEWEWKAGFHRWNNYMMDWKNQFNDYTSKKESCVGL

In the case of COc1ccc(C(OCCN2CCC[C@H](C(=O)O)C2)(c2ccc(OC)cc2)c2ccc(OC)cc2)cc1 [(S)‐SNAP‐5114, reference compound], the IC50 (hGAT‐3) is given as 45 µM.
For O=C(CC(c1ccccc1)c1ccccc1)N[C@@H](Cc1ccccc1)[C@@H](O)CNCc1ccccc1 [Compound I], the inhibition at 1 µM [1] is given as 67.7%, the IC50 (hGAT‐3; earlier screening) is given as 3 µM and the “pro-cognitive effect in passive avoidance task” value [2] is given as “did not observe pro‐cognitive effects; also recorded: non active”.
With Nc1c2c(nc3ccccc13)CCCC2 [Tacrine, reference compound] the “Melting temperature (Tm) of BuChE” value (BuChE) was “increased Tm of BuChE”.
